Read-outs that look alike come from different tables or passages of the source.
How the values were obtained:
DU145 = assay: MTT cytotoxicity assay, DU145; assay type: cell-based, human
Method: Cytotoxicity Assays. […] The cells were incubated with the tested compounds for 72 hours in a five-dose assay ranging from 0.01 to 100 μM concentration. After drug treatments, MTT solution was added to test the percentage growth of tumor cells.
The compounds were incubated with the cells for 72 hours in a five-dose assay ranging from 0.01 to 100 μM concentration. At the end of the incubation, the MTT solution was added to test the percentage growth of tumor cells.
For the drug treatment experiments, the cancer cells were treated with the compounds (predissolved in DMSO) at a five-dose assay ranging from 0.01 to 100 μM concentration. […] After 4 h incubation, the formazan crystal formed in the well was dissolved with […] of DMSO for optical density reading at 570 nm. The GI50 value was calculated by nonlinear regression analysis (GraphPad Prism).

MALME-3M = assay: NCI-60 cytotoxicity; assay type: cell-based, human; details: read-out: GI50 (μM) MALME-3M; NCI-60 Melanoma, 48 h
Method: (§1) Cell growth inhibition (GI50 in Table 3) was calculated relative to cells without compound treatment and the time zero control.
(§2) Regarding Table 8, according to the NCI established procedures, the cells were incubated with 67 or 50 for 48 hours and stained with sulforhodamine B dye.

MDA-MB-435 = assay: NCI-60 cytotoxicity; assay type: cell-based, human; details: NCI-60 Melanoma, 48 h
Method: as §1, §2

CAKI-1 = assay: NCI-60 cytotoxicity; assay type: cell-based, human; details: NCI-60 Renal Cancer, 48 h
Method: as §1, §2

SNB-75 = assay: NCI-60 cytotoxicity; assay type: cell-based, human; details: NCI-60 CNS Cancer, 48 h
Method: as §1, §2

TK-10 = assay: NCI-60 cytotoxicity; assay type: cell-based, human; details: NCI-60 Renal Cancer, 48 h
Method: as §1, §2

SN 12C = assay: NCI-60 cytotoxicity; assay type: cell-based, human; details: NCI-60 Renal Cancer, 48 h
Method: as §1, §2

IGROV1 = assay: NCI-60 cytotoxicity; assay type: cell-based, human; details: NCI-60 Ovarian Cancer, 48 h
Method: as §1, §2

K-562 = assay: NCI-60 cytotoxicity; assay type: cell-based, human; details: NCI-60 Leukemia, 48 h
Method: as §1, §2

LOX IMVI = assay: NCI-60 cytotoxicity; assay type: cell-based, human; details: NCI-60 Melanoma, 48 h
Method: as §1, §2

SNB-19 = assay: NCI-60 cytotoxicity; assay type: cell-based, human; details: NCI-60 CNS Cancer, 48 h
Method: as §1, §2

SF-539 = assay: NCI-60 cytotoxicity; assay type: cell-based, human; details: NCI-60 CNS Cancer, 48 h
Method: as §1, §2

HCC-2998 = assay: NCI-60 cytotoxicity; assay type: cell-based, human; details: NCI-60 Colon Cancer, 48 h
Method: as §1, §2

UACC-62 = assay: NCI-60 cytotoxicity; assay type: cell-based, human; details: NCI-60 Melanoma, 48 h
Method: as §1, §2

OVCAR-8 = assay: NCI-60 cytotoxicity; assay type: cell-based, human; details: NCI-60 Ovarian Cancer, 48 h
Method: as §1, §2

HOP-62 = assay: NCI-60 cytotoxicity; assay type: cell-based, human; details: NCI-60 Non-Small Cell Lung Cancer, 48 h
Method: as §1, §2

T-47D = assay: NCI-60 cytotoxicity; assay type: cell-based, human; details: NCI-60 Breast Cancer, 48 h
Method: as §1, §2

RPMI-8226 = assay: NCI-60 cytotoxicity; assay type: cell-based, human; details: NCI-60 Leukemia, 48 h
Method: as §1, §2

KM12 = assay: NCI-60 cytotoxicity; assay type: cell-based, human; details: NCI-60 Colon Cancer, 48 h
Method: as §1, §2

MDA-MB-231/ATCC = assay: NCI-60 cytotoxicity; assay type: cell-based, human; details: NCI-60 Breast Cancer, 48 h
Method: as §1, §2

HS 578T = assay: NCI-60 cytotoxicity; assay type: cell-based, human; details: NCI-60 Breast Cancer, 48 h
Method: as §1, §2

NCI/ADR-RES = assay: NCI-60 cytotoxicity; assay type: cell-based, human; details: NCI-60 Ovarian Cancer, 48 h
Method: as §1, §2

CCRF-CEM = assay: NCI-60 cytotoxicity; assay type: cell-based, human; details: NCI-60 Leukemia, 48 h
Method: as §1, §2

OVCAR-5 = assay: NCI-60 cytotoxicity; assay type: cell-based, human; details: NCI-60 Ovarian Cancer, 48 h
Method: as §1, §2

NCI-H23 = assay: NCI-60 cytotoxicity; assay type: cell-based, human; details: NCI-60 Non-Small Cell Lung Cancer, 48 h
Method: as §1, §2

RXF 393 = assay: NCI-60 cytotoxicity; assay type: cell-based, human; details: NCI-60 Renal Cancer, 48 h
Method: as §1, §2

Top1 = biological target: T1, Top1 (Homo sapiens, UniProt P11387); assay: Top1-mediated DNA cleavage assay; assay type: biochemical; details: graded relative to CPT at 1 μM, Table 7
T1 sequence (P11387 1-765): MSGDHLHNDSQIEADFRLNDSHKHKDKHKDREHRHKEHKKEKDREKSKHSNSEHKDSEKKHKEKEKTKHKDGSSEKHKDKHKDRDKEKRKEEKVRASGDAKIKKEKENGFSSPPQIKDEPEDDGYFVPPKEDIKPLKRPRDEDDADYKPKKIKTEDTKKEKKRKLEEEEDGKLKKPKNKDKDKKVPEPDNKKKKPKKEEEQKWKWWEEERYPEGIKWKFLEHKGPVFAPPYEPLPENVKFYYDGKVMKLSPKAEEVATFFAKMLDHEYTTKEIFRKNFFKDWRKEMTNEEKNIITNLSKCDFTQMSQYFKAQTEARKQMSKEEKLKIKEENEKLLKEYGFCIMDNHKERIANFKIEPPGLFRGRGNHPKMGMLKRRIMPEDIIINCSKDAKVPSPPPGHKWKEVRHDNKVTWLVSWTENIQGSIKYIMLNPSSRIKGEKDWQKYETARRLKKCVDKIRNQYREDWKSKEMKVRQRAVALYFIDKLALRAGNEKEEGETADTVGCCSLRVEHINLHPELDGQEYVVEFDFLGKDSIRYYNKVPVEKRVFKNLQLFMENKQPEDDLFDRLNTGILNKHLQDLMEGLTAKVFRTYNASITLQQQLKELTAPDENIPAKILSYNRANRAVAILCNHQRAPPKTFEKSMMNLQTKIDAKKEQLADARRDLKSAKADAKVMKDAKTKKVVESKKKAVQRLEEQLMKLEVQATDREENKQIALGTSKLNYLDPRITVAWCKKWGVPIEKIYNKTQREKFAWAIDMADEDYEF

NCI-60 cell lines = assay: NCI-60 cytotoxicity, mean graph midpoint; details: read-out: GI50 (μM) MGM; mean graph midpoint of all cell lines, 48 h, sulforhodamine B
[1] = 72 h, Table 7, read-out: GI50 ± SC (μM) DU145

Row | Compound | GI50 (DU145; [1]) [µM] | GI50 (MALME-3M) [µM] | GI50 (MDA-MB-435) [µM] | GI50 (CAKI-1) [µM] | GI50 (SNB-75) [µM] | GI50 (TK-10) [µM] | GI50 (SN 12C) [µM] | GI50 (IGROV1) [µM] | GI50 (K-562) [µM] | GI50 (LOX IMVI) [µM] | GI50 (SNB-19) [µM] | GI50 (SF-539) [µM] | GI50 (HCC-2998) [µM] | GI50 (UACC-62) [µM] | GI50 (OVCAR-8) [µM] | GI50 (HOP-62) [µM] | GI50 (T-47D) [µM] | GI50 (RPMI-8226) [µM] | GI50 (KM12) [µM] | GI50 (MDA-MB-231/ATCC) [µM] | further results
1 | COc1cc2c(=O)n(CCN)c3c4cc5c(cc4ccc3c2cc1OC)OCO5 [Compound 67, 12-(2-aminoethyl)-2,3-dimethoxy-[1,3]dioxolo[4′,5′:4,5]benzo[1,2-c]phenanthridin-13(12-H)-one] | 0.014 ± 0.001 | 0.613 | 0.759 | 0.295 | 0.596 | 1.35 | 0.739 | 0.5 | 0.161 | 0.246 | 0.398 | 1.06 | 1.02 | 0.278 | 0.93 | 0.399 | 0.368 | 0.257 | 1.1 | 1.28 | GI50 (HS 578T): 1.96 µM; GI50 (NCI/ADR-RES): 1.01 µM; GI50 (CCRF-CEM): 0.15 µM; GI50 (OVCAR-5): 1.2 µM; GI50 (NCI-H23): 0.451 µM; GI50 (RXF 393): 0.929 µM; TOP1 inhibition (Top1): ++ (++, between 50% and 75% activity); GI50 (NCI-60 cell lines): 0.525 µM
2 | CNCCn1c(=O)c2cc(OC)c(OC)cc2c2ccc3cc4c(cc3c21)OCO4 [Compound 50, 2,3-dimethoxy-12-(2-(methylamino)ethyl)-[1,3]dioxolo[4′5′:4,5]benzo[1,2-c]phenanthridin-13(12H)-one] | 0.002 | 0.174 | 0.118 | 0.0644 | 0.0885 | 0.316 | 0.171 | 0.145 | 0.0394 | 0.0389 | 0.116 | 0.124 | 0.156 | 0.0451 | 0.132 | 0.0439 | 0.0757 | 0.0763 | 0.238 | 0.362 | GI50 (DU145; read-out: GI50 ± SD (μM) Parental cell line DU-145, drug-resistance panel): 0.002 ± 0.001 µM; GI50 (HS 578T): 0.904 µM; GI50 (NCI/ADR-RES): 0.165 µM; GI50 (CCRF-CEM): 0.0201 µM; GI50 (OVCAR-5): 0.183 µM; GI50 (NCI-H23): 0.0906 µM; GI50 (RXF 393): 0.16 µM; TOP1 inhibition (Top1): +++ (+++, between 75% and 95% activity); GI50 (NCI-60 cell lines): 0.0977 µM
